Read-outs that look alike come from different tables or passages of the source.
Columns and labels:
Format in all cases: physicochemical
[1] = Headspace above the candle wax: relative partition parameter (SPME-GC); conditions: log of amount in headspace relative to amount in candle wax; 5% odorant mixture, grated nonburning candle, SPME 15 min
Method: (§1) The procedure is analogous in all examples.
(§2) The example reflects the scent impression, which is perceived from a nonburning candle. The mixture of 39 odorants is incorporated into a candle in an amount of 5%. 20 g of the grated candle are transferred to a 100 ml Erlenmeyer flask sealed with a septum. The headspace above the candle is extracted using a SPME over 15 min. […] The analytical results are then used mathematically as described above.

[2] = Headspace above the solution of WC scented block cleaner: relative partition parameter (SPME-GC); conditions: log of amount in headspace above 1% solution in water relative to amount in WC block; 1% odorant mixture, SPME 15 min
Method: as §1
as §2, with “WC scented block cleaner.” for “nonburning candle.”, “the toilet block” for “a candle”, “1%. A 1% solution” for “5%. 20 g”, “toilet block in water is prepared. 20 ml of this solution” for “grated candle”, “shampoo” for “candle”, “by means of” for “using”

[3] = Headspace above the wet washed hair: relative partition parameter headspace/shampoo (SPME-GC)
Method: as §1
The example reflects the scent impression, which is perceived from freshly washed hair. The shampoo is prepared as is generally customary. The mixture of 39 odorants is incorporated into the above-mentioned shampoo (1st) in an amount of 1%. A hair tress (2.5 g) is washed in 100 ml of a 20% shampoo solution in water by immersing 5-10 times and stirring, and then rinsed in 100 ml of clear water by immersing it three times. The hair tress is carefully patted with thin cellulose. The moist hair tress is transferred to a 100 ml Erlenmeyer flask sealed with a septum and left to stand for 3 h. The headspace above the washed and rinsed hair tress is extracted over 15 min using solid phase microextraction (SPME). The SPME needle is desorbed in a GC injector, and a gas chromatogram is recorded. […] The analytical results are then used mathematically as described above.

[4] = Headspace above the fresh gel room air freshener: relative partition parameter (SPME-GC); conditions: log of amount in headspace relative to amount in gel; 5% odorant mixture, 10 liter vessel, 1 h, SPME 15 min
Method: as §1
The example reflects the scent impression, which is perceived above a fresh gel room air freshener. The mixture of 39 odorants is incorporated into an air freshener in an amount of 5%. 100 g of the air freshener are placed in its customary presentation form in a large sealed 10 liter vessel. The air freshener is left to stand for one hour. The headspace above the air freshener is extracted using a SPME over 15 min. […] The analytical results are then used mathematically as described above.

[5] = Headspace above the shampoo: relative partition parameter (SPME-GC); conditions: log of amount in headspace relative to amount in shampoo; 1% odorant mixture, SPME 15 min
Method: as §1
as §2, with “freshly opened bottle of shampoo.” for “nonburning candle.”, “the above-mentioned shampoo (1)” for “a candle”, “1%.” for “5%.”, “shampoo” for “grated candle”, “shampoo” for “candle”

[6] = Headspace above the soap bar: relative partition parameter (SPME-GC)
Method: as §1
The example reflects the scent impression, which is perceived from a fresh bar of soap. […] 20 g of the grated soap are transferred to a 100 ml Erlenmeyer flask sealed with a septum. The headspace above the shampoo is extracted using a SPME over 15 min. […] The analytical results are then used mathematically as described above.

[7] = Headspace above the washing powder: relative partition parameter (SPME-GC)
Method: as §1
as §2, with “freshly opened pack of laundry detergent.” for “nonburning candle.”, “in the above-mentioned washing powder” for “into a candle”, “0.5%.” for “5%.”, “washing powder” for “grated candle”, “shampoo” for “candle”

[8] = log of amount in headspace above wet washed hair relative to amount in shampoo, 1% odorant mixture, 3 h standing, SPME 15 min
[9] = log of amount in headspace relative to amount in soap, 1.2% odorant mixture, grated soap, SPME 15 min
[10] = log of amount in headspace relative to amount in washing powder, 0.5% odorant mixture, SPME 15 min

Activity (logarithmic partition parameter above candle wax) [1]	Activity (logarithmic partition parameter above dissolved WC scented block cleaners) [2]	Activity (logarithmic partition parameter above wet hair) [3, 8]	Activity (logarithmic partition parameter above gel room air fresheners) [4]	Activity (logarithmic partition parameter above shampoo) [5]	Activity (logarithmic partition parameter above soap) [6, 9]	Activity (logarithmic partition parameter above washing powder) [7, 10]	Compound	Activity (logarithmic partition parameter above wet hair) [3]	Activity (logarithmic partition parameter above soap) [6]	Activity (logarithmic partition parameter above washing powder) [7]
0.726	−1.070	−0.299	0.674	0.844	1.180	1.167	CC(=O)OCC=C(C)C [Prenyl acetate]	–	–	–
−0.244	−1.552	−1.006	0.594	−0.293	0.538	0.224	CC(=O)OCc1ccccc1 [Benzyl acetate]	–	–	–
−0.632	−1.636	−1.349	0.245	−0.742	0.170	−0.176	OCCc1ccccc1 [PEA, phenylethyl alcohol]	–	–	–
−1.441	−1.152	−1.559	−0.515	−1.157	−0.701	−0.697	CC(=O)/C=C/C1C(C)=CCCC1(C)C (stereo not drawn) [Ionone, alpha]	–	–	–
−1.159	−1.575	−1.818	−0.158	−1.406	−0.787	−0.780	CC(C)=CCCC(C)CCO (stereo not shown) [Citronellol]	–	–	–
0.342	−1.230	−0.074	0.126	1.009	0.819	0.771	CC1=CCC(C(C)C)=CC1 [gamma-Terpinene]	–	–	–
−0.588	−0.434	−0.741	0.392	−0.026	0.147	0.061	CC(=O)O[C@@H]1C[C@H]2CC[C@]1(C)C2(C)C (racemic) [Isobornyl acetate]	–	–	–
−0.420	−1.299	−1.119	0.376	−0.511	−0.028	0.057	C=CC(C)(O)CCC=C(C)C (stereo not shown) [Linalool]	–	–	–

Compound	Activity (logarithmic partition parameter above candle wax) [1]	Activity (logarithmic partition parameter above dissolved WC scented block cleaners) [2]	Activity (logarithmic partition parameter above wet hair) [3, 8]	Activity (logarithmic partition parameter above gel room air fresheners) [4]	Activity (logarithmic partition parameter above shampoo) [5]	Activity (logarithmic partition parameter above soap) [6, 9]	Activity (logarithmic partition parameter above washing powder) [7, 10]	Activity (logarithmic partition parameter above wet hair) [3]	Activity (logarithmic partition parameter above soap) [6]	Activity (logarithmic partition parameter above washing powder) [7]
Caryophyllene	−1.062	−0.390	–	−0.011	−0.279	–	–	−1.080	−0.150	−0.385
CC(=O)OC(C)(C)C1CC=C(C)CC1 (stereo not shown) [Terpinyl acetate]	−0.979	−0.524	–	−0.029	−0.561	–	–	−1.135	−0.253	−0.196

— US6741954B2, “Selection method for odorants” (Symrise GmbH & Co. KG, priority 2000, dated 2004)
